The text below walks through data of BindingDB's records for patent US11396516 (The General Hospital Corporation, 2022).

This test has as its target T1, Cytochrome P450 1A2 (Homo sapiens, UniProt P05177).
T1 sequence (P05177 whole entry): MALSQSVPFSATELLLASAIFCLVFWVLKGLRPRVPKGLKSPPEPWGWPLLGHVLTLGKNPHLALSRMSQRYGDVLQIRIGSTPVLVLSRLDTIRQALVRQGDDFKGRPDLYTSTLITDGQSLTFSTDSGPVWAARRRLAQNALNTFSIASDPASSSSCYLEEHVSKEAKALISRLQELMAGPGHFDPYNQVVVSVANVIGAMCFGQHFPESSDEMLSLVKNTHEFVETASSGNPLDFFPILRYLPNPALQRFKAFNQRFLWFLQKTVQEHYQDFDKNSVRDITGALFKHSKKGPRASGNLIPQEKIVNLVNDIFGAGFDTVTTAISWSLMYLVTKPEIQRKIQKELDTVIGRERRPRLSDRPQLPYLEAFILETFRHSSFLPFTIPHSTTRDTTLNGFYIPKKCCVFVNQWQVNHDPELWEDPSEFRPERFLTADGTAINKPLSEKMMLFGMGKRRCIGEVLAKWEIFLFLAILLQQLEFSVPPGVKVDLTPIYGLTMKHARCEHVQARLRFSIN
Kind of test: Inhibition of CYP Enzyme Activity In Vitro. As for the experimental part:
The ability of the tested compounds to inhibit a panel of CYP enzymes in vitro was assessed using a series of human liver microsome assays. Half-maximal inhibitory concentration (IC50) was calculated for compounds demonstrating mean inhibition greater than 50% compared to a reference inhibitor.

`COc1c2ccoc2cc2oc(C)cc(=O)c12` [US11396516, Example visnagin] yielded an IC50 of 240 nM. This counts as sub-micromolar.

As a reminder, the IC50 is the concentration needed to halve the response being measured. Low values mean inhibition by little substance, high ones a need for much substance.
